From ChEMBL document CHEMBL4680374, “Carbamate and N-Pyrimidine Mitigate Amide Hydrolysis: Structure-Based Drug Design of Tetrahydroquinoline IDO1 Inhibitors” (ACS Med Chem Lett, 2021)
pIC50: −log10 of the molar value. ≈ marks a conversion by molar mass, not a printed value. Calls of active or inactive are those of the source. No cut-off for these calls is given here.

Experiments:
[1] = Solubility of compound in PBS buffer at pH 7 at 200 uM incubated for 24 hrs in shaker by UPLC-DAD analysis; assay type: physicochemical
[2] = Lipophilicity, log D of compound in PBS buffer at pH 7 at 200 uM incubated for 24 hrs in shaker by UPLC/DAD analysis; assay type: physicochemical
[3] = Solubility of compound in PBS buffer at pH 2 at 200 uM incubated for 24 hrs in shaker by UPLC-DAD analysis; assay type: physicochemical
[4] = biological target: Voltage-gated inwardly rectifying potassium channel KCNH2 (Homo sapiens, UniProt Q12809); test: Displacement of [35S]-MK499 binding to human ERG expressed in HEK293 cells incubated for 2 hrs by liquid scintillation counting method; assay type: cell-based
Sequence of Voltage-gated inwardly rectifying potassium channel KCNH2 (Q12809 whole entry): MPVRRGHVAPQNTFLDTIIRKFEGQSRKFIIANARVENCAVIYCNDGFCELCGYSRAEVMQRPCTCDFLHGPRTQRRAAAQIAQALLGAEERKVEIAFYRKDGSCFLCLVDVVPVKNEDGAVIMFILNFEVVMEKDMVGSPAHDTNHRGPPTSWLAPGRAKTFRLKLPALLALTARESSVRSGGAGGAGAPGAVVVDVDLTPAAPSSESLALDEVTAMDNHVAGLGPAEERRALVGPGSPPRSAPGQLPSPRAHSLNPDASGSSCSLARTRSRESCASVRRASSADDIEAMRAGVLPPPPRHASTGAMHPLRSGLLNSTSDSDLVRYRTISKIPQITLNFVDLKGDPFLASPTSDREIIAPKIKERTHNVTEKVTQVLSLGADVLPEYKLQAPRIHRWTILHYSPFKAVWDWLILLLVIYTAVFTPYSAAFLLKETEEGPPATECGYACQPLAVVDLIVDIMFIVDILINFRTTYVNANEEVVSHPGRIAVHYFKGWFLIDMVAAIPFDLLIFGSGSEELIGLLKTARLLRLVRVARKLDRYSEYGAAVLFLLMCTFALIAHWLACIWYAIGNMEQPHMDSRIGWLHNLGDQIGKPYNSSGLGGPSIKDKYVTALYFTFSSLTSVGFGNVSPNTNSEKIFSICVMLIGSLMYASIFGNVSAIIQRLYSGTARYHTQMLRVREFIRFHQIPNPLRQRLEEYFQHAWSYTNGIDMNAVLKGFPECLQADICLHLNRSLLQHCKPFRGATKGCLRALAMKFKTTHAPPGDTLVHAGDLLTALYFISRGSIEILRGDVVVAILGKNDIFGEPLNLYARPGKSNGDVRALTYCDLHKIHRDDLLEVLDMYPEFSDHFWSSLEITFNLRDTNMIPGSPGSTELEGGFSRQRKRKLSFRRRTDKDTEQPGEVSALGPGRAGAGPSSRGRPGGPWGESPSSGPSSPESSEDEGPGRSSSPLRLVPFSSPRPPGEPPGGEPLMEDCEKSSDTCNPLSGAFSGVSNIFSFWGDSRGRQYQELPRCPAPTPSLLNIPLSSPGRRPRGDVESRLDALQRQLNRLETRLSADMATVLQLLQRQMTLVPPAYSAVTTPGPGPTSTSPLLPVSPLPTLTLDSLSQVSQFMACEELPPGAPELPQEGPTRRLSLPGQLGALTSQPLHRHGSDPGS

[5] = Apparent permeability of compound; assay type: ADME; details: not told
[6] = biological target: Cytochrome P450 3A4 (Homo sapiens, UniProt P08684); test: Inhibition of CYP3A4 (unknown origin); assay type: ADME
Sequence of Cytochrome P450 3A4 (P08684 whole entry): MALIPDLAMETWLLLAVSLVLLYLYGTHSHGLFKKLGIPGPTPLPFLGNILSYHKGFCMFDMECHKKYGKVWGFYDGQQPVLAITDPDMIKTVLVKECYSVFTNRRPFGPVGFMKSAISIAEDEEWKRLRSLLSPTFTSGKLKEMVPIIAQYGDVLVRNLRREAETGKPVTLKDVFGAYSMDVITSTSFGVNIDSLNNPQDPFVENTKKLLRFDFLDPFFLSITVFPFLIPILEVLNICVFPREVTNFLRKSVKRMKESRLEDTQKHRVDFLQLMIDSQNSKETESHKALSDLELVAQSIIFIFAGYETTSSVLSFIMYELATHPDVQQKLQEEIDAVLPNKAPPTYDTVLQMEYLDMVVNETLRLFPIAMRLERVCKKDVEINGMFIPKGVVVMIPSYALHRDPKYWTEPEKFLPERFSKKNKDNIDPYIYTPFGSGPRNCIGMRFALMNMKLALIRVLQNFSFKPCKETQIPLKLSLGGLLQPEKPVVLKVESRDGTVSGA

[7] = Protein binding in human plasma assessed as unbound fraction; assay type: ADME, cell-free
[8] = Protein binding in rat plasma assessed as unbound fraction; assay type: ADME, cell-free
[9] = biological target: Cytochrome P450 2C9 (Homo sapiens, UniProt P11712); test: Inhibition of CYP2C9 (unknown origin); assay type: ADME
Sequence of Cytochrome P450 2C9 (P11712 whole entry): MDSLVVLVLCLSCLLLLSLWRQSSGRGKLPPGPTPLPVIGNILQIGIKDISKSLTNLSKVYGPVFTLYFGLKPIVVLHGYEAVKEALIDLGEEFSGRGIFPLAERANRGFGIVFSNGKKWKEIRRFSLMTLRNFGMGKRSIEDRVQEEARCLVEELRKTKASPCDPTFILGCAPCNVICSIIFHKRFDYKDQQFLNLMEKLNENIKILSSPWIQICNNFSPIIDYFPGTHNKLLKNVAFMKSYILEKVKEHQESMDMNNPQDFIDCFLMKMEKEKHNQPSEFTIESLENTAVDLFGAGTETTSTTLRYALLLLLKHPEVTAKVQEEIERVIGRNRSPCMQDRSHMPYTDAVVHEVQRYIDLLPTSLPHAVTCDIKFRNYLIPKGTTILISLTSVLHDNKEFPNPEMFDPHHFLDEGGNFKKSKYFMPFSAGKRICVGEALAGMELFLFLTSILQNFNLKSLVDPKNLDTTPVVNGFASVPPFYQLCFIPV

[10] = Inhibition of Ca ion channel (unknown origin); set-up: species or system Homo sapiens
[11] = Inhibition of Na ion channel (unknown origin); set-up: species or system Homo sapiens
[12] = biological target: Indoleamine 2,3-dioxygenase 1 (Homo sapiens) (UniProt P14902); details: Blood, time 1095.0 min
Sequence of Indoleamine 2,3-dioxygenase 1 (Homo sapiens) (P14902 whole entry, looked up): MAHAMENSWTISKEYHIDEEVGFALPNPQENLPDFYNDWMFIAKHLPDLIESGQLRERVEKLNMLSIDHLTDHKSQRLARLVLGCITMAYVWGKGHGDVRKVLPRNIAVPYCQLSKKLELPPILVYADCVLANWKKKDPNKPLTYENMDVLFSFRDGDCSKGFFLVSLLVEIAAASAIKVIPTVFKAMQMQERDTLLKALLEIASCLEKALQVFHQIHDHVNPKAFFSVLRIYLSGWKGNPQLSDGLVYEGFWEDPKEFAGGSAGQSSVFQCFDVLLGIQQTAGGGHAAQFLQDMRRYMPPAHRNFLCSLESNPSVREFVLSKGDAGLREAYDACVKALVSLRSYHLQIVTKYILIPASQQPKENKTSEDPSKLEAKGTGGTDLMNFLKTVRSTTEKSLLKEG

[13] = Drug metabolism in human hepatocytes assessed as oxidative metabolite formation at 30 uM measured upto 90 mins by LC-MS analysis; assay type: ADME, cell-based, Hepatocyte
[14] = Drug metabolism in rat hepatocytes assessed as oxidative metabolite formation at 30 uM measured upto 90 mins by LC-MS analysis; assay type: ADME, cell-based, Hepatocyte
[15] = Plasma clearance in rat at 2 mg/kg, po or 1 mg/kg, iv; assay type: ADME, organism-based
[16] = Oral bioavailability in rat at 2 mg/kg; assay type: ADME, organism-based; details: in vivo
[17] = Unbound clearance in rat at 2 mg/kg, po or 1 mg/kg, iv; assay type: ADME, organism-based; details: in vivo
[18] = Half life in rat at 2 mg/kg, po or 1 mg/kg, iv; assay type: ADME, organism-based; details: in vivo
[19] = Unbound clearance in rat at 0.05 mg/kg, iv; assay type: ADME, organism-based; details: in vivo
[20] = Drug metabolism in rat hepatocytes assessed as amide hydrolysis metabolite formation at 30 uM measured upto 90 mins by LC-MS analysis; assay type: ADME, cell-based, Hepatocyte
[21] = Clearance in rat at 0.05 mg/kg, iv; assay type: ADME, organism-based; details: in vivo
[22] = Drug metabolism in human hepatocytes assessed as amide hydrolysis metabolite formation at 30 uM measured upto 90 mins by LC-MS analysis; assay type: ADME, cell-based, Hepatocyte
[23] = Metabolic stability in human hepatocytes at 30 uM measured upto 90 mins by LC-MS analysis; assay type: ADME, cell-based, Hepatocyte
[24] = Metabolic stability in rat hepatocytes at 30 uM measured upto 90 mins by LC-MS analysis; assay type: ADME, cell-based, Hepatocyte
[25] = biological target: Tryptophan 2,3-dioxygenase (Homo sapiens) (UniProt P48775); test: Inhibition of TDO in human SW48 cells assessed as inhibition of N-formylkynurenine production; assay type: cell-based
Sequence of Tryptophan 2,3-dioxygenase (Homo sapiens) (P48775 whole entry, looked up): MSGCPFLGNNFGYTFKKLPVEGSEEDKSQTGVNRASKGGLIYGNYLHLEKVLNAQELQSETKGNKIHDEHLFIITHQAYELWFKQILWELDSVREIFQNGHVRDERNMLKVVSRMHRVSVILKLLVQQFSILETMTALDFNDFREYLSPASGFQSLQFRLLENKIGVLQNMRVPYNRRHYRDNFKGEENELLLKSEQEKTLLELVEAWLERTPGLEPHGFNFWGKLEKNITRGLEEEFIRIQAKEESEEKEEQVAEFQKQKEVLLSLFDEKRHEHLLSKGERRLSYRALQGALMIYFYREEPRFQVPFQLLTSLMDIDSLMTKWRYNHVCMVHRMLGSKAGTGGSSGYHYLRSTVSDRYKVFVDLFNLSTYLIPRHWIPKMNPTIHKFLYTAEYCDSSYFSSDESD

Compound	solubility at 24 h, 200 µM [1] [µM]	logD at 24 h, 200 µM [2]	solubility at 24 h, 200 µM [3] [µM]	pIC50 [4]	other results
C[C@@H](NC(=O)c1ccc(F)cc1)c1ccc2c(n1)CCCN2c1cccnc1	147 (≈ 55.3 µg/mL)	2.3	177 (≈ 66.6 µg/mL)	–	–
C[C@@H](NC(=O)c1ccc(Cl)cc1)c1ccc2c(n1)CCCN2C(=O)c1cccc(Cl)c1	11 (≈ 5 µg/mL)	3.4	171 (≈ 77.7 µg/mL)	5.06	–
C[C@@H](NC(=O)c1ccc(F)cc1)c1ccc2c(n1)CCCN2c1ccnc(C(F)(F)F)n1	166 (≈ 73.9 µg/mL)	–	183 (≈ 81.5 µg/mL)	4.60	Papp [5]: 33 ×10⁻⁶ cm/s; pIC50 [6]: 4.37; fraction unbound [7]: 0.05; fraction unbound [8]: 0.037; pIC50 [9]: 4.74; pIC50 [10]: 5.22; pIC50 [11]: 5.15; fIC50 [12]: 2.1 nM
O=C(NCc1ccc2c(c1)CCCN2C(=O)c1cccc(Cl)c1)c1ccc(Cl)cc1	–	–	–	4.96	–
C[C@@H](NC(=O)c1ccc(F)cc1)c1ccc2c(n1)CCCN2c1ccncn1	164 (≈ 61.9 µg/mL)	1.9	157 (≈ 59.3 µg/mL)	–	–
CCCNC(=O)C1(c2ccc(NC(=O)c3cccc(Cl)c3)cc2)CCC1	–	3.2	–	–	–
Cc1nccc(N2CCCc3nc([C@@H](C)NC(=O)c4ccc(F)cc4)ccc32)n1	166 (≈ 65 µg/mL)	–	168 (≈ 65.8 µg/mL)	4.74	–
C[C@@H](NC(=O)c1ccc(F)cc1)c1ccc2c(n1)CCCN2c1ncccn1	5 (≈ 1.89 µg/mL)	2.4	139 (≈ 52.5 µg/mL)	4.70	–
C[C@@H](NC(=O)c1ccc(Cl)cc1)c1ccc2c(c1)C(F)(F)CCN2C(=O)c1cccc(Cl)c1	< 4	3.9	< 4	–	–
C[C@@H](NC(=O)c1ccc(F)cc1)c1ccc2c(n1)CCCN2c1ccccn1	151 (≈ 56.8 µg/mL)	2.7	197 (≈ 74.2 µg/mL)	–	–
C[C@@H](NC(=O)c1ccc(F)cc1)c1ccc2c(n1)CCCN2c1ccnc(C#N)n1	152 (≈ 61.2 µg/mL)	2.7	163 (≈ 65.6 µg/mL)	–	–
C[C@@H](NC(=O)c1ccc(F)cc1)c1ccc2c(n1)CCCN2c1cnccn1	4 (≈ 1.51 µg/mL)	2.1	143 (≈ 54 µg/mL)	–	–
Cc1cc(N2CCCc3nc([C@@H](C)NC(=O)c4ccc(F)cc4)ccc32)ccn1	165 (≈ 64.4 µg/mL)	2	177 (≈ 69.1 µg/mL)	6.14	Stabilty [23]: Stable; Stabilty [24]: Stable
C[C@@H](NC(=O)c1ccc(F)cc1)c1ccc2c(n1)CCCN2C(=O)C1(C(F)(F)F)CC1	162 (≈ 70.5 µg/mL)	2.9	187 (≈ 81.4 µg/mL)	–	Stabilty [23]: Stable; Stabilty [24]: Stable
C[C@@H](NC(=O)c1ccc(Cl)cc1)c1ccc2c(c1)OCCN2C(=O)c1cccc(Cl)c1	3 (≈ 1.37 µg/mL)	3.6	1 (≈ 0.455 µg/mL)	5.16	–

More lines, main results first:

solubility at 24 h, 200 µM [1] [µM]	logD at 24 h, 200 µM [2]	solubility at 24 h, 200 µM [3] [µM]	Compound	pIC50 [4]	other results
165 (≈ 66.2 µg/mL)	2.3	196 (≈ 78.7 µg/mL)	COCCOC(=O)N1CCCc2nc([C@@H](C)NC(=O)c3ccc(F)cc3)ccc21	–	–
27 (≈ 12.3 µg/mL)	3.3	152 (≈ 69.1 µg/mL)	C[C@@H](NC(=O)c1ccc(Cl)cc1)c1cc2c(cn1)N(C(=O)c1cccc(Cl)c1)CCC2	4.80	–
3 (≈ 1.36 µg/mL)	3.7	< 1	C[C@@H](NC(=O)c1ccc(Cl)cc1)c1ccc2c(c1)CCCN2C(=O)c1cccc(Cl)c1	6.00	Drug metabolism [13]: Metabolite_Detected; Drug metabolism [14]: Metabolite_Detected
156 (≈ 59.8 µg/mL)	2.8	181 (≈ 69.4 µg/mL)	C[C@@H](NC(=O)c1ccc(F)cc1)c1ccc2c(n1)CCCN2C(=O)OC1CC1	4.70	Papp [5]: 32 ×10⁻⁶ cm/s; pIC50 [6]: 4.22; clearance [15]: 14 mL/min/kg; fraction unbound [7]: 0.094; fraction unbound [8]: 0.11; bioavailability [16]: 40%; CL free [17]: 221 mL/min/kg; pIC50 [9]: 5.21; half-life [18]: 1.1 h; pIC50 [10]: 4.22; pIC50 [11]: 4.22
3 (≈ 1.36 µg/mL)	3.7	< 1	C[C@H](NC(=O)c1ccc(Cl)cc1)c1ccc2c(c1)CCCN2C(=O)c1cccc(Cl)c1	6.00	–
13 (≈ 5 µg/mL)	3.3	13 (≈ 5 µg/mL)	CC(C)CC(=O)N1CCCc2cc(CNC(=O)c3ccc(Cl)cc3)ccc21	4.66	–
168 (≈ 62.4 µg/mL)	2.7	183 (≈ 68 µg/mL)	CCOC(=O)N1CCCc2nc([C@@H](C)NC(=O)c3ccc(F)cc3)ccc21	–	–
82 (≈ 35.9 µg/mL)	3.1	148 (≈ 64.8 µg/mL)	C[C@@H](NC(=O)c1ccc(F)cc1)c1ccc2c(n1)CCCN2C(=O)c1cccc(Cl)c1	–	CL free [19]: 1566 mL/min/kg; Papp [5]: 32 ×10⁻⁶ cm/s; Drug metabolism [20]: Metabolite_Detected; pIC50 [6]: 4.70; clearance [21]: 57 mL/min/kg; fraction unbound [7]: 0.029; Drug metabolism [22]: Metabolite_Detected; fraction unbound [8]: 0.037; half-life [18]: 1.6 h; pIC50 [10]: 4.70; pIC50 [11]: 4.70
137 (≈ 48.8 µg/mL)	2.8	140 (≈ 49.9 µg/mL)	CC(C)CC(=O)N1CCCc2cc(CNC(=O)c3ccsc3)ccc21	4.62	Stabilty [23]: Unstable; Stabilty [24]: Unstable; clearance [15]: 93 mL/min/kg; inhibition [25]: inactive; half-life [18]: 0.2 h
132 (≈ 56.2 µg/mL)	3	200 (≈ 85.1 µg/mL)	C[C@@H](NC(=O)c1ccc(F)cc1)c1ccc2c(n1)CCCN2C(=O)OCC(F)(F)F	–	–
134 (≈ 53.3 µg/mL)	3.2	184 (≈ 73.1 µg/mL)	C[C@@H](NC(=O)c1ccc(F)cc1)c1ccc2c(n1)CCCN2C(=O)OC1CCC1	–	–
97 (≈ 37.4 µg/mL)	3	185 (≈ 71.4 µg/mL)	CC(C)CC(=O)N1CCCc2cc(CNC(=O)c3ccc(Cl)cc3)cnc21	–	–
168 (≈ 67.1 µg/mL)	2	176 (≈ 70.3 µg/mL)	C[C@@H](NC(=O)c1ccc(F)cc1)c1ccc2c(n1)CCCN2C(=O)OC1COC1	–	–
154 (≈ 55 µg/mL)	2.3	167 (≈ 59.7 µg/mL)	COC(=O)N1CCCc2nc([C@@H](C)NC(=O)c3ccc(F)cc3)ccc21	–	–
